Assay results: US7164024B2, “Benzimidazolone derivatives” (Banyu Pharmaceutical Co., Ltd., priority 2001, dated 2007)

Columns and labels:
[1] = target: T1, muscarinic acetylcholine receptors of human m1 (Homo sapiens, UniProt P11229); assay: Test on inhibition of binding to muscarinic receptors (m1); conditions: human m1 expressed in CHO cells, 0.2 nM [3H]-N-methylscopolamine, 120 minutes at room temperature
T1 construct: purchased Receptor Biology, Inc; host or cells: CHO cells
T1 sequence (P11229 1-460): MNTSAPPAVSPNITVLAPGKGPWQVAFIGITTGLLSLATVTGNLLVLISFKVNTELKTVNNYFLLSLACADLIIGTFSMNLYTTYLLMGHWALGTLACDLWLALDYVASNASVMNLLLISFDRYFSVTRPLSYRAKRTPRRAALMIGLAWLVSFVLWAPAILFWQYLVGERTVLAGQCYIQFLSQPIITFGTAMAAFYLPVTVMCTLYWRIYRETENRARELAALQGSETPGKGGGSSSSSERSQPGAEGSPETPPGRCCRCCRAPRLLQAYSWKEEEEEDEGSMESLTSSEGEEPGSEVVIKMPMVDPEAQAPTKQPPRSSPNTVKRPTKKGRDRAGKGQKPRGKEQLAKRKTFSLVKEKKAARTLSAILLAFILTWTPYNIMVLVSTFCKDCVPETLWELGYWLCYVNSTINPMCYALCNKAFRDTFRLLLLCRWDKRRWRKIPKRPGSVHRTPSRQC
Protocol: (§1) The test was performed according to a modification of the method of Hargreaves, et al. (Br. J. Pharmacol. 107: 494–501, 1992). Namely, muscarinic acetylcholine receptors of human m1, m2, m3, m4 and m5 expressed in CHO cells (Receptor Biology, Inc.) were incubated with 0.2 nM [^3H]-N-methylscopolamine (82Ci/mmol, New England Nuclear, Inc.) and a test compound, either in 0.5 ml of 50 mM Tris-HCI, 10 mM MgCl2, 1 mM EDTA solution (pH 7.4) (human m1, m3 and m5 samples) or in 0.5 ml of 50 mM tris-HCl, 10 mM MgCl2, 1 mM EDTA, 5000 nM GTPγS solution (pH 7.4) (human m2 and m4 samples) for 120 minutes at room temperature (about 20–25° C.), followed by suction filtration over a glass filter (UniFilter plate-GF/C; Packard). Then the filter was washed four times with 1 ml of ice-cooled Tris-HCI buffer and dried at 50° C. for an hour. After adding a scintillator (Microscinti 0; Packard), the radioactivity of [^3H]-N-methylscopolamine binding to the filter was counted with a microplate scintillation counter (TopCount; Packard). Non-specific receptor binding of [^3H]-N-methylscopolamine was measured by adding 1 μM N-methylscopolamine. According to the method of Cheng and Prusoff (Biochem. Pharmacol. 22: 3099–3108, 1973), the binding affinity of each sample compound of the present invention for muscarinic receptors is expressed by inhibition constant (Ki) which is calculated from the concentration (IC50) of the sample compound which achieves 50% inhibition of binding of [^3H]-N-methylscopolamine, the labeled ligand. Smaller inhibition constant (Ki) represents stronger tendency to bind to muscarinic receptors, i.e., a higher binding inhibitory effect.

[2] = target: T2, muscarinic acetylcholine receptors of human m2 (Homo sapiens, UniProt P08172); assay: Test on inhibition of binding to muscarinic receptors (m2); conditions: human m2 expressed in CHO cells, 0.2 nM [3H]-N-methylscopolamine, 5000 nM GTPγS, 120 minutes at room temperature
T2 construct: purchased Receptor Biology, Inc; host or cells: CHO cells
T2 sequence (P08172 1-466): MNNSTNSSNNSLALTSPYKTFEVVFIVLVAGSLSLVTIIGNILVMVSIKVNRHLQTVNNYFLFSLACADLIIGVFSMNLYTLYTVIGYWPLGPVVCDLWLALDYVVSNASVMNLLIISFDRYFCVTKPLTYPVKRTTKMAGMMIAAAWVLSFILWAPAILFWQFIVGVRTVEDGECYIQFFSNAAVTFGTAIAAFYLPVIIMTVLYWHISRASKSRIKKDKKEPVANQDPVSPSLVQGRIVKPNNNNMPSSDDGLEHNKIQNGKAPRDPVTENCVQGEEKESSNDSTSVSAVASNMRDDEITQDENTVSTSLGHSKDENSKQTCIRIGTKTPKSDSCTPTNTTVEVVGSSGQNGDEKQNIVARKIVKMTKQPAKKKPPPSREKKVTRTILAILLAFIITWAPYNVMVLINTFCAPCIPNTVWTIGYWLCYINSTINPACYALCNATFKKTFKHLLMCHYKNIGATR
Protocol: as §1

[3] = target: T3, muscarinic acetylcholine receptors of human m3 (Homo sapiens, UniProt P20309); assay: Test on inhibition of binding to muscarinic receptors (m3); conditions: human m3 expressed in CHO cells, 0.2 nM [3H]-N-methylscopolamine, 120 minutes at room temperature
T3 construct: purchased Receptor Biology, Inc; host or cells: CHO cells
T3 sequence (P20309 whole entry): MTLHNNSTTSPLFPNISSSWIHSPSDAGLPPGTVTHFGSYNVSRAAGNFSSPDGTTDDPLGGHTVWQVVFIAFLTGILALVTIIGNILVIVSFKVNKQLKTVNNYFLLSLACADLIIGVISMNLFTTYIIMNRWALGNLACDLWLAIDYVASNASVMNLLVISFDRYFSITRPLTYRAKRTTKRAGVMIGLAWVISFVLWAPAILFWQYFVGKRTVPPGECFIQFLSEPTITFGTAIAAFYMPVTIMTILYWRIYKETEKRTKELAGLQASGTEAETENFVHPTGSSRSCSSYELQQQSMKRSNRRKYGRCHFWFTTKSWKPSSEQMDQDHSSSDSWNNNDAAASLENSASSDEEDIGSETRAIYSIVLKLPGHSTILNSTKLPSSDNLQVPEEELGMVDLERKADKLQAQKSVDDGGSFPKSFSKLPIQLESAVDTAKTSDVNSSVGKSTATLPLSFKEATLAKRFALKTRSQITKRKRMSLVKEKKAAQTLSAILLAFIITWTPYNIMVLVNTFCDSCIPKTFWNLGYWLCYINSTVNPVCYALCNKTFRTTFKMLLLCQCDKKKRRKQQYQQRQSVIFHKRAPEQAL
Protocol: as §1

[4] = target: T4, muscarinic acetylcholine receptors of human m4 (Homo sapiens, UniProt P08173); assay: Test on inhibition of binding to muscarinic receptors (m4); conditions: for Ki: human m4 expressed in CHO cells, 0.2 nM [3H]-N-methylscopolamine, 5000 nM GTPγS, 120 minutes at room temperature; for Selectivity (times) m1/m4: ratio of Ki m1 to Ki m4; for Selectivity (times) m2/m4: ratio of Ki m2 to Ki m4; for Selectivity (times) m3/m4: ratio of Ki m3 to Ki m4; for Selectivity (times) m5/m4: ratio of Ki m5 to Ki m4
T4 construct: purchased Receptor Biology, Inc; host or cells: CHO cells
T4 sequence (P08173 1-479): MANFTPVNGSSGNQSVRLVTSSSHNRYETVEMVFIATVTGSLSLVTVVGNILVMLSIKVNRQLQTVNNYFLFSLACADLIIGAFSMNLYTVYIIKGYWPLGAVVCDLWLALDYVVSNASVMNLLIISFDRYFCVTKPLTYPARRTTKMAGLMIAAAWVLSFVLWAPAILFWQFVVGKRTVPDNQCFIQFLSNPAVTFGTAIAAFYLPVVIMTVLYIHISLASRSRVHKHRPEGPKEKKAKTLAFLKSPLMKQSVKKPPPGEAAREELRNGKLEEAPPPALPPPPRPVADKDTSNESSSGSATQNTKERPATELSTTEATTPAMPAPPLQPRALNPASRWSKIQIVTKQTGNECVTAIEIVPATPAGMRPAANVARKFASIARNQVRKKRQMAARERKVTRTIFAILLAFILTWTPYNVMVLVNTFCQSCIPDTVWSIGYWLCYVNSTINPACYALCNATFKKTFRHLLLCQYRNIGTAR
Protocol: as §1

[5] = target: T5, muscarinic acetylcholine receptors of human m5 (Homo sapiens, UniProt P08912); assay: Test on inhibition of binding to muscarinic receptors (m5); conditions: human m5 expressed in CHO cells, 0.2 nM [3H]-N-methylscopolamine, 120 minutes at room temperature
T5 construct: purchased Receptor Biology, Inc; host or cells: CHO cells
T5 sequence (P08912 1-532): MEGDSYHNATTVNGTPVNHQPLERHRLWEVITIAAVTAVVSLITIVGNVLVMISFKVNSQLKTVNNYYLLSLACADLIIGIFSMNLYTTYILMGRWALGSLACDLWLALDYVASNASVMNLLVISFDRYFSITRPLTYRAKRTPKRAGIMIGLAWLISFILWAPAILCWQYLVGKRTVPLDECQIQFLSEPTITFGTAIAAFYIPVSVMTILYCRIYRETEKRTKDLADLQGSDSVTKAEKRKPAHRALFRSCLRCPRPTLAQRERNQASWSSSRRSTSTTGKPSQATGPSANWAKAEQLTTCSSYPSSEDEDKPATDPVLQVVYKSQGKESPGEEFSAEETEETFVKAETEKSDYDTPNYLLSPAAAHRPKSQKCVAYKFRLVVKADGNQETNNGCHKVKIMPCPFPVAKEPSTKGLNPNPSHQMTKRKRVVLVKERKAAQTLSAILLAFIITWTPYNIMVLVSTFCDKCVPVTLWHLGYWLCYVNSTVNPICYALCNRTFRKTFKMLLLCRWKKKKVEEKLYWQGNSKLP
Protocol: as §1

SMILES: O=C(c1cccnc1)N1CCCC(CCN2CCC(n3c(=O)[nH]c4ccccc43)CC2)CC1 (single isomer, unassigned) [Example 9, (S*)-1-[1-[2-[1-(3-pyridylcarbonyl)perhydroazepin-4-yl]ethyl]piperidin-4-yl]-1,3-dihydro-2H-benzimidazol-2-one]
- Ki [1]: 25 nM
- Ki [2]: 31 nM
- Ki [3]: 1700 nM
- Ki [4]: 1.7 nM
- Selectivity (times) m1/m4 [4]: 15 times
- Selectivity (times) m2/m4 [4]: 19 times
- Selectivity (times) m3/m4 [4]: 1000 times
- Selectivity (times) m5/m4 [4]: 270 times
- Ki [5]: 450 nM

SMILES: O=C(c1cnccn1)N1CCC(CCN2CCC(n3c(=O)[nH]c4ccccc43)CC2)CC1 [Example 4, 1-[1-[2-[1-(Pyrazinylcarbonyl)piperidin-4-yl]ethyl]piperidin-4-yl]-1,3-dihydro-2H-benzimidazol-2-one]
- Ki [1]: 28 nM
- Ki [2]: 73 nM
- Ki [3]: 7400 nM
- Ki [4]: 4.5 nM
- Selectivity (times) m1/m4 [4]: 6.1 times
- Selectivity (times) m2/m4 [4]: 16 times
- Selectivity (times) m3/m4 [4]: 1600 times
- Selectivity (times) m5/m4 [4]: 57 times
- Ki [5]: 260 nM

SMILES: CC(CN1CCC(n2c(=O)[nH]c3ccccc32)CC1)C1CCN(C(=O)c2cccnc2)CC1 (stereo not drawn) [Example 12, 1-[1-[2-[1-(3-Pyridylcarbonyl)piperidin-4-yl]propyl]piperidin-4-yl]-1,3-dihydro-2H-benzimidazol-2-one]
- Ki [1]: 22 nM
- Ki [2]: 24 nM
- Ki [3]: 4500 nM
- Ki [4]: 2.3 nM
- Selectivity (times) m1/m4 [4]: 9.7 times
- Selectivity (times) m2/m4 [4]: 11 times
- Selectivity (times) m3/m4 [4]: 2000 times
- Selectivity (times) m5/m4 [4]: 99 times
- Ki [5]: 220 nM
